Measured values taken from PubChem BioAssay (NCI).
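Step 1: Grow cells in 96-well plates. Step 2: Expose to compound for 48 hours at 5 concentrations. Step 3: Interpolate endpoints linearly; if unreached, use highest concentration. Abbreviation: GI50, concentration required for 50% inhibition of growth. TGI: total growth inhibition.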

Tests used:
Test in all cases: NCI tumour cell line growth inhibition, 48 h
NCI-H23 lung = system: NCI-H23 lung
OVCAR-3 ovarian = system: OVCAR-3 ovarian
NCI-H460 lung = system: NCI-H460 lung
SK-OV-3 ovarian = system: SK-OV-3 ovarian
HS 578T breast = system: HS 578T breast
HOP-62 NSCLC = system: HOP-62 NSCLC
OVCAR-4 ovarian = system: OVCAR-4 ovarian
NCI-H522 lung = system: NCI-H522 lung
HCT-15 colon = system: HCT-15 colon
TK-10 renal = system: TK-10 renal

| SMILES | GI50 (NCI-H23 lung) [µM] | TGI (NCI-H23 lung) [µM] | GI50 (OVCAR-3 ovarian) [µM] | TGI (OVCAR-3 ovarian) [µM] | GI50 (NCI-H460 lung) [µM] | TGI (NCI-H460 lung) [µM] | GI50 (SK-OV-3 ovarian) [µM] | TGI (SK-OV-3 ovarian) [µM] | GI50 (HS 578T breast) [µM] | TGI (HS 578T breast) [µM] | GI50 (HOP-62 NSCLC) [µM] | TGI (HOP-62 NSCLC) [µM] | GI50 (OVCAR-4 ovarian) [µM] | TGI (OVCAR-4 ovarian) [µM] | TGI (NCI-H522 lung) [µM] | GI50 (HCT-15 colon) [µM] | TGI (HCT-15 colon) [µM] | GI50 (TK-10 renal) [µM] | TGI (TK-10 renal) [µM] | GI50 (NCI-H522 lung) [µM] |
| --- | --- | --- | --- | --- | --- | --- | --- | --- | --- | --- | --- | --- | --- | --- | --- | --- | --- | --- | --- | --- |
| CCC[CH2][Sn]([CH2]CCC)([O]C(=O)c1cc(F)ccc1F)[O][Sn]([CH2]CCC)([CH2]CCC)[O]C(=O)c1cc(F)ccc1F | 0.0702 | 0.311 | 0.512 | 1.61 | 1.03 | 2.48 | 1.03 | 2.34 | 0.237 | 0.994 | 1.84 | 3.27 | 0.513 | 1.73 | 0.0658 | 0.254 | 0.87 | 0.226 | 0.616 | – |
| COc1ccc2c(c1O)C13CCN(C)C(C2)C1CCC1(C3)OCCO1 (stereo unspecified) | – | > 100 | – | > 100 | – | > 100 | – | > 100 | – | > 100 | – | > 100 | – | > 100 | > 100 | – | > 100 | – | > 100 | – |
| C/C=C/C/C=C/CCC(=O)[C@H]1O[C@H]1C(N)=O | – | 29.9 | 13.9 | 27.4 | 17 | 39.4 | 27 | > 72.7 | 15.9 | > 100 | 13 | 28.2 | – | 26.1 | 25.6 | 8.45 | 24.1 | 16.5 | 30.5 | – |
| Fc1ccc(-c2nn3c(-c4ccc(F)c(Cl)c4)nnc3s2)cc1 | > 50 | > 50 | > 50 | > 50 | 27.7 | > 50 | 19.4 | > 50 | > 50 | > 50 | 27.5 | > 50 | 10.1 | 41 | > 50 | 22.7 | > 50 | 14.2 | > 50 | 20.8 |
| COc1cc2c(cc1OCCCCCOc1cc3c(cc1OC)C(=O)N1CC(F)C[C@H]1C=N3)N=C[C@@H]1CC(F)CN1C2=O (stereo partly specified) | < 0.0373 | 0.394 | 0.128 | 0.51 | < 0.01 | 0.143 | 0.327 | 46.5 | 0.0581 | 0.246 | < 0.01 | 0.222 | 1.29 | 24.1 | 0.204 | 1.11 | 3.72 | 1.98 | 6.32 | 0.0372 |
| Cn1cc(C2=C(c3cn(CCO)c4ccccc34)C(=O)NC2=O)c2ccccc21 | 4.75 | 15.2 | 1.78 | 14 | 2.06 | > 25 | 2.61 | > 21.9 | 1.49 | 14.5 | 3.36 | > 16.6 | 7.83 | > 25 | 10.8 | 1.57 | > 25 | 4.58 | 15.5 | 1.64 |
| Nc1ccccc1-c1ccc([N+](=O)[O-])cc1 | 26.6 | > 100 | 13.4 | 76.9 | 4.44 | > 100 | 68.3 | > 100 | 50.8 | > 100 | > 100 | > 100 | 40.8 | > 100 | > 100 | 14.3 | > 100 | 25.9 | > 100 | 11.2 |
| Cc1nc(-c2ccccc2)c(Cc2ccccc2O)c(=O)[nH]1 | – | > 100 | – | > 100 | – | > 100 | – | > 100 | – | > 100 | – | > 100 | – | > 100 | > 100 | – | > 100 | – | > 100 | – |
| O=S(=O)(Cc1ccc(Cl)cc1Cl)c1ccc(Cl)cc1 | 0.878 | > 100 | 0.346 | 1.8 | 0.401 | 30 | 1.47 | > 57.7 | 0.729 | > 100 | 3.36 | > 100 | 5.73 | > 100 | 2.27 | 0.419 | > 100 | 1.01 | > 53.9 | 0.282 |
| CCC1C(=O)OCc2c1cc1n(c2=O)Cc2cc3ccccc3nc2-1 (stereo unspecified) | – | 10.6 | – | > 100 | – | 64.4 | – | > 100 | – | > 100 | – | 25.5 | – | > 100 | > 44.4 | – | > 100 | – | > 100 | – |
| Clc1ccc(/C=C/c2cc(N3CCOCC3)c3cc(Cl)c(Cl)cc3n2)cc1 | > 100 | > 100 | 3.81 | > 100 | > 100 | > 100 | > 100 | > 100 | > 100 | > 100 | > 100 | > 100 | > 100 | > 100 | > 100 | > 100 | > 100 | > 100 | > 100 | 1.86 |
